Measurements reported in US4714698A, “8-alkylthio-2-piperazino-pyrimido[5,4-d]-pyrimidines” (Dr. Karl Thomae GmbH, priority 1984, dated 1987).

What was measured:
[1] = target: phosphodiesterase from human thrombocytes; assay: PDE inhibition (PDE assay), phosphodiesterase from human thrombocytes, 3H-cAMP substrate; format: biochemical; conditions: concentration which inhibited PDE activity by 50%, 1 μmol/l 3H-cAMP as substrate, read-out: PDE inhibition ED50, Human thrombocytes
Protocol: Phosphodiesterase was obtained from human thrombocytes by an analogous method.
(§1) The PDE inhibition by the test substances was determined using 1 μmol/1 of ^3 H-cAMP as substrate. The PDE inhibition was determined by measuring the degradation of the substrate ^3 H-cAMP used into ^3 H-AMP by comparison with the control without the test substance. The ^3 H-AMP formed was separated from the remaining ^3 H-cAMP by precipitation with zinc sulphate-barium hydroxide.
(§2) The ED50, i.e. the concentration which inhibited the PDE activity by 50%, was calculated by linear regression analysis.

[2] = system: phosphodiesterase from B16 melanoma tissue (B16 tumour cells); assay: PDE inhibition (PDE assay), phosphodiesterase from B16 melanoma tissue, 3H-cAMP substrate; format: biochemical, mice; conditions: concentration which inhibited PDE activity by 50%, 1 μmol/l 3H-cAMP as substrate, read-out: PDE inhibition ED50, B16 tumour cells
Protocol: The phosphodiesterase was obtained from B16 melanoma tissue from mice by centrifuging the homogenised tissue at 5000×g (15 minutes at 4° C.). The tissues were homogenized by repeated freezing and thawing and homogenisation according to Potter-Elvehjem or by ultrasound. The homogenised supernatant containing the PDE was deep frozen and stored in batches at -25° C.
as §1, §2

[3] = Tolerability / lethality in mice; format: in vivo; conditions: 10 animals
Source text: Moreover, the new compounds are well tolerated.

Row | IC50 [1] [nM] | IC50 [2] [nM] | SMILES | deaths of animals ([3]; 20 mg/kg i.v.) | deaths of animals ([3]; 100 mg/kg p.o.)
1 | 1700 | 28 | CSc1ncnc2c(N3CCCCCC3)nc(N3CCNCC3)nc12 [Substance D, 4-Hexamethyleneimino-8-methylthio-2-piperazinopyrimido[5,4-d]pyrimidine] | – | –
2 | 1200 | 120 | CCCCCCNc1nc(N2CCNCC2)nc2c(SC)ncnc12 [Substance C, 4-n-Hexylamino-8-methylthio-2-piperazino-pyrimido[5,4-d]pyrimidine] | – | –
3 | 1300 | 37 | CCN(CC)c1nc(N2CCNCC2)nc2c(SC)ncnc12 [Substance B, 4-Diethylamino-8-methylthio-2-piperazino-pyrimido[5,4-d]pyrimidine] | – | –

Row | SMILES | IC50 [1] [nM] | IC50 [2] [nM] | deaths of animals ([3]; 20 mg/kg i.v.) | deaths of animals ([3]; 100 mg/kg p.o.)
4 | CSc1ncnc2c(N3CCCC3)nc(N3CCNCC3)nc12 [Substance A, 8-Methylthio-2-piperazino-4-pyrrolidino-pyrimido[5,4-d]pyrimidine] | 1600 | 66 | none of the 10 animals used died | none of the 10 animals used died
